The record followed here is patent US20170029451A1, “BRANCHED CHAIN ACYCLIC NUCLEOSIDE PHOSPHONATE ESTERS AND METHODS OF SYNTHESIS AND USES THEREOF” (CHIMERIX, INC., priority 2013, published 2017).

Read-outs that look alike come from different tables or passages of the source.

For one data set, the system named is MCMV. The data set can be described thus: MCMV antiviral activity in MEF cells. The data set is classed as cell-based. The conditions noted are these: Virus MCMV, cell line MEF.
The subject of another data set is BKV (Gardner strain). The data set can be described thus: BKV EC50 in Vero cells (qPCR of supernatant BKV DNA). It is filed as cell-based, BK virus (BKV). The conditions noted are these: Betapolyomavirus hominis. The method, then:
Costar 96-well tissue culture plates were seeded with 10,000 Vero cells/well in DMEM containing 2% Hyclone Standard Fetal Bovine Serum (FBS, Cat 5H30088.03) and 1% Hyclone Penicillin and Streptomycin. Outer wells were not used to minimize the edge-effect produced by extended incubations. Cells were inoculated with 115 BKV DNA copies/cell (ATCC, Gardner strain). Serial dilutions of test compounds were added to the cells and plates were incubated for 10 days at 37° C. in 5% CO2. After the 10-day incubation, 50 μL supernatant was mixed with 50 μL 2× lysis buffer that provided a final concentration 0.5 mg/mL protease K, 50 mM KCl, 10 mM Tris-Cl pH 8.0, 2.5 mM MgCl2, 0.45% IGEPAL, and 0.45% Tween-20 dissolved in DEPC-treated water. Each plate was incubated for 2 hours at 55° C. Supernatant BKV DNA was measured by quantitative polymerase chain reaction (qPCR) using forward and reverse BKV PCR primers, and a FAM-labeled probe. Absolute quantitation of viral copy number was performed using a standard curve with dilutions of a BKV DNA amplicon containing sequences homologous to the amplified fragment. The following qPCR amplification conditions were used: 1 cycle at 95° C. for 10 minutes, followed by 45 cycles of 95° C. for 15 seconds and 60° C. for 60 seconds. The qPCR reactions were performed using an Applied Biosystems 7500 real Time PCR System. Gen 5 software (BioTek Instruments, Inc.) was used to calculate the concentration which inhibited the viral DNA levels of BKV-infected Vero cells by 50% (EC50).
In general terms: Real-time PCR tracks product formation cycle by cycle.

In data set [1] the test system is Herpes Simplex Virus 1 (Strain E-377). As to the kind of experiment: Plaque reduction assay, HSV-1 in human foreskin fibroblast cells. The data set is classed as cell-based. The following applies: Human alphaherpesvirus 1; Strain E-377, human foreskin fibroblast cells. Background: In a plaque reduction assay, fewer plaques than in the control indicate reduced infectivity or spread.

Data set [2] is described as follows: CellTiter-Glo cytotoxicity assay in Akata cells. The conditions noted are these: human. (In general: ATP-based viability assays read luminescence as a measure of living cells.)
The nature of data set [3]: Cytotoxicity in 2.2.15 cells. It is filed as cell-based. The following applies: human, cell line 2.2.15 (HBV row).
A short description of data set [4]: Cytotoxicity (CC50) in MT4 cells. It is filed as cell-based. The following applies: human. As for the experimental part:
Costar 96-well tissue culture plates were seeded with 5,000 MT4 cells (NIH AIDS Reagents Program)/well in RPMI (Lonza, Cat 12-11F) containing 10% Hyclone Standard Fetal Bovine Serum (FBS, Cat 5H30088.03), 1% Hyclone Penicillin and Streptomycin (Cat SV30010), and 2 mM Lonza L-Glutamine (Cat 17-605E). Outer wells were not used to minimize the edge-effect produced by extended incubations. Serial dilutions of test compounds were added to the cells and plates were incubated for 6 days at 37° C. in 5% CO2. After 6 days of incubation 40 μL of Cell Titer 96® Aqueous MTS Reagent (Promega, G111) was added as directed by manufacturer to the 200 μL media in each well and incubated at 37° C. until the untreated-cell controls developed an 490 nm absorbance between 1.1 and 1.8. The final absorbance readings were read using a BioTek Synergy 2, and Gen 5 software (BioTek Instruments, Inc.) was used to calculate the concentration which inhibited MT4 cells by 50% (CC50).

The subject of data set [5] is Cowpox Virus (Strain Brighton). As to the kind of experiment: microbe, parasite or virus in culture. It is filed as cell-based. The conditions noted are these: Fibroblast, read-out: CPXV EC50, μM.
The subject of data set [6] is Vaccinia Virus (Strain Copenhagen). The data set can be described thus: microbe, parasite or virus in culture. It is filed as cell-based. The conditions noted are these: Orthopoxvirus vaccinia, Fibroblast, read-out: VACV EC50, μM.
The nature of data set [7]: Cytotoxicity (CC50) in Vero cells. The data set is classed as cell-based. The following applies: African green monkey, cell line Vero (BKV row). The method, then:
Costar 96-well tissue culture plates were seeded with 10,000 Vero cells (ATCC)/well in DMEM (ATCC, Cat 30-2002) containing 2% Hyclone Standard Fetal Bovine Serum (FBS, Cat 5H30088.03) and 1% Hyclone Penicillin and Streptomycin (Cat SV30010). Outer wells were not used to minimize the edge-effect produced by extended incubations. Serial dilutions of test compounds were added to the cells and plates were incubated for 7 days at 37° C. in 5% CO2. After 7 days of incubation 40 μL of Cell Titer 96® Aqueous MTS Reagent (Promega, G111) was added as directed by manufacturer to the 200 iut media in each well and incubated at 37° C. until the untreated-cell controls developed an 490 nm absorbance between 1.1 and 1.8. The final absorbance readings were read using a BioTek Synergy 2, and Gen 5 software (BioTek Instruments, Inc.) was used to calculate the concentration which inhibited Vero cells by 50% (CC50).

For orientation: EC50 means the concentration that produces a half-maximal response. As usually defined, the CC50 is the concentration that lowers cell viability or growth by half. Regarding `CC(C)CCCCCCCCCCCCCCOCCCOP(=O)(O)COC(CO)Cn1ccc(=O)[nH]c1=O` (centres unmarked) [Compound 12], the concentration for a half-maximal effect (EC50) is 1.6 µM in the data set with MCMV; 1.55 µM with BKV (Gardner strain) (BKV in Vero cells (Table 7), read-out: BKV EC50); 2.1 µM in the data set on BKV (Gardner strain) (Virus BKV, cell line Vero (Table 8), read-out: EC50); above 50 µM in [1]; above 10 µM in [5]; above 10 µM in data set [6]. In addition, the half-maximal cytotoxic concentration (CC50) in [2] is 18 µM; in data set [3] it was 34 µM. The 50% cytotoxic concentration (CC50) at 6 days in data set [4] (MT4 cells (Table 7), read-out: MT4 CC50) amounted to 25.6 µM; in data set [4] (Mean XC50 (Table 9), read-out: MT4 cytotoxicity CC50), 24.7 µM. Besides, in [7], the CC50 at 7 days was determined as 93 µM.
